Reference: patent publication US20240343760A1, “PEPTIDES FOR CELL-TYPE SPECIFIC TARGETING OF THE RETINA” (Oregon State University, priority 2021, published 2024)
“Also recorded” adds a separate entry of the source. Where two headings read alike, the source gives them in different places. Ends that are not written are not given here. TAMRA = 5-(and -6)-carboxytetramethylrhodamine fluorophore, conjugated to the side chain of the C-terminal Cys

Assays:
661w cone cells [1] = assay: Cell ELISA of phage-displayed peptides on 661w cone cells; assay type: cell-based, mouse; settings: for binding affinity (OD450) 661w cone cells compared to hARPE19 cells: ratio 661w / hARPE19; for binding to 661w cone cells (cell ELISA, OD450): vs empty bacteriophage control
Procedure: (§1) ARPE19 and 661w cells were seeded a day before the experiment on 96 well plates (10^4 cells/well). On day of experiment, cells were first fixed in 4% paraformaldehyde solution at room temperature for 15 minutes. This was followed by three washes with PBS and then the cells were blocked for 30 minutes at room temperature with 1% BSA in PBS. […] The wells were then washed with 0.1% TBST and individual phage clones were incubated for one hour at room temperature in blocking buffer with gentle rocking. After phage incubation, wells were washed three times with 0.1% TBST to reduce non-specific binding and eliminate weakly bound phages. Biotin-conjugated, mouse anti-M13 phage coat protein primary antibody was added (Thermo Fisher cat. #MA1-34468) at 1:5000 dilution in 0.1% TBST and incubated for 1 hour at room temperature with gentle rocking. The wells were washed three more times with 0.1% TBST and subsequently incubated with poly-HRP streptavidin secondary antibody (Thermo Fisher cat. #N200) at 1:10000 dilution in 0.1% TBST for 1 hour at room temperature. Wells were then washed three times with 0.1% TBST and 3,3′,5,5′-Tetramethylbenzidine (Thermo Fisher) was added to the wells and incubated at room temperature for 5-10 minutes and the reaction was stopped with 0.2 M Sulfuric Acid and absorbance was read at 450 nm using TECAN Infinite200 Pro spectrophotometer (Tecan Group Ltd., Switzerland).
(§2) After identifying 30 novel peptide sequences, top-performing candidates were identified that could target LNPs to the neural retina. Since bacteriophages were eluted from the entire neural retina, the candidates were pre-screened for their ability to bind to the cell of interest, the PRs. Single bacteriophage-peptides were amplified in E. coli, and a cell-based enzyme-linked immunosorbent assay (ELISA) was developed against the 661w mouse cone PR cell line and the hARPE19 cell line as a control. As expected, for most of the bacteriophage-peptide candidates, binding affinities were weaker when tested against RPE cells compared to 661w cone cells. […] However, the binding affinity, as measured by OD450, was close to 2-fold higher when binding to 661w cone cells compared to hARPE19 cells.

hARPE19 cells = assay: Cell ELISA of phage-displayed peptides on hARPE19 cells; assay type: cell-based; settings: vs empty bacteriophage control
Procedure: as §1, §2

[2] = system: PR and RPE/choroid layers; assay: In vivo validation with TAMRA-labelled peptides, intravitreal or subretinal injection
Procedure: (§3) For subretinal injections, mice were topically administered 0.5% proparacaine, 1% tropicamide, and 2.5% phenylephrine and anesthetized with ketamine (100 mg/kg)/xylazine (10 mg/kg). To initiate the injection, 2.5% hypromellose was used to cover the eye and a 30-gauge needle was used to make an incision in the limbus. A glass coverslip was then placed over the eye to allow for visualization of the retina. Going through the scleral incision in the limbus, using a Hamilton syringe with a 33-gauge blunt needle, 1 μL PBS, peptide, or LNP-Cre were delivered to the subretinal space. A 2% fluorescein solution was added to the PBS and LNPs so retinal detachment could be confirmed. For most injections, scleral incisions in the limbus were created nasally and PBS or LNPs were delivered temporally. Intravitreal injections were performed as previously described elsewhere (25). […] For intravitreal injections 1.1 μg (1.5 μL, 741 ng/μL) was injected.
(§4) At specified time points, mouse eyes were enucleated and fixed using 4% paraformaldehyde in PBS overnight at 4° C. Eyes were cryopreserved in 30% sucrose solution for 2 hours prior to embedding in OCT media followed by cryo-sectioning and confocal imaging. Retinal cryo-sections were 12 μm thick and DAPI stained prior to confocal imaging done using TCS SP8 X (Leica Microsystems, Buffalo Grove, IL). Z-stacks (spanned 10 μm with 1 μm interval) were collected using a 40× objective, and maximum intensity projections were used for further analysis.
(§5) All confocal imaging was performed using TCS SP8 X (Leica Microsystems, Buffalo Grove, IL). Z-stacks (spanned 10 μm with 1 μm interval) were collected using a 20× or 40× objective, and maximum intensity projections were used for further analysis.
(§6) For TAMRA quantification from peptide injections, region of interest (ROI) were created for RPE/choroid and PR cell layer for mean fluorescent intensity values. Fold change measurements were compared to TAMRA-only controls. An ordinary one-way ANOVA, with Tukey's correction for multiple comparisons test was used for comparisons between groups (Prism 8 software, GraphPad Software, La Jolla, CA). Data are presented as mean±SEM. A p-value <0.05 was considered as statistically significant.

661w cone cells [3] = assay: Cell internalization of TAMRA-labeled peptides, 661w cone cells; assay type: cell-based, mouse; settings: 661w cells, TAMRA-conjugated peptide, 30 minutes
Procedure: Approximately 50,000 cells were seeded per well of 8-well μ-Slide (Ibidi, Fitchburg, WI) and incubated with 10 nM and 50 nM TAMRA-labeled peptides for 30 minutes at 37° C. followed by washing with PBS, fixation in 4% Paraformaldehyde for 10 mins at room temperature. Cells were then washed three times, DAPI stained and cover slipped for confocal microscopy imaging. Fluorescence confocal images of cell internalization studies were captured with the same exposure settings and were analyzed for fluorescence intensity using ImageJ (version 1.45; National Institutes of Health, Bethesda, MD). First, the hARPE or 661w cells were outlined and ImageJ calculated the pixel intensity of the different cell treatments with different peptides. At least three images were analyzed for each peptide tested.
TAMRA-conjugated peptides were added to hARPE19 and 661w cells at a 10 nM and 50 nM concentration to evaluate their internalization (FIGS. 2E to 2H and 8A to 8B). After 30 minutes of incubation at 37° C., cells were fixed and DAPI stained for confocal imaging.

[4] = system: PR and RPE/choroid layers; settings: mouse, in vivo
Procedure: as §3, §4, §5, §6

Substance | binding affinity (OD450) 661w cone cells compared to hARPE19 cells (661w cone cells [1]) | binding to 661w cone cells (cell ELISA, OD450) (661w cone cells [1]) | binding to hARPE19 (RPE) cells (cell ELISA, OD450) (hARPE19 cells) | further results
ATGPRSV [Peptide 57] | ~2 fold | high binding | highest affinity | binding to hARPE19 (RPE) cells (cell ELISA, OD450) (hARPE19 cells; listed as MH57): significantly higher binding
DGPPRKP [Peptide 3] | – | – | highest affinity | –
DGPPRKPGGGSC (DGPPRKPGGGSC(TAMRA); not fully specified) [MH3] | – | reduced binding affinity; also recorded: low-binder | significantly higher binding | retinal localization of TAMRA-labelled peptide (confocal) [2]: poor accumulation in RPE and PRs
HLSSLTP [Peptide 54] | – | highest affinity | highest affinity | binding to hARPE19 (RPE) cells (cell ELISA, OD450) (hARPE19 cells; listed as MH54): significantly higher binding
LAFHRMP [Peptide 52] | ~2 fold | highest affinity | highest affinity | binding to 661w cone cells (cell ELISA, OD450) (661w cone cells [1]; listed as MH52): high binding; binding to hARPE19 (RPE) cells (cell ELISA, OD450) (hARPE19 cells; listed as MH52): significantly higher binding
MPVAVYR [Peptide 50] | – | highest affinity | highest affinity | –
MPVAVYRGGGSC (MPVAVYRGGGSC(TAMRA)) [MH50] | ~2 fold | high binding; also recorded: high-binders; also recorded: top 2 performing | significantly higher binding | cellular uptake compared to the negative control MH3 (661w cone cells [3]): 4.1 fold; retinal localization of TAMRA-labelled peptide (confocal) [4]: localized to PRs including the outer nuclear layer and inner/outer segments as well as RPE
SNLAAFP [Peptide 43] | – | highest affinity | – | –
SNLAAFPGGGSC (SNLAAFPGGGSC(TAMRA)) [MH43, peptide 43 with added linker; TAMRA-labelled at carboxy-terminal Cys in cell and in vivo tests] | – | high-binders | – | –
SPALHFL [Peptide 42] | – | highest affinity | – | –
SPALHFLGGGSC (SPALHFLGGGSC(TAMRA)) [MH42] | ~2 fold | high binding; also recorded: high-binders; also recorded: top 2 performing | significantly higher binding | cellular uptake compared to the negative control MH3 (661w cone cells [3]): 1.7 fold; clearance of labelled peptide from retina [4]: ≤ 24 h; retinal localization of TAMRA-labelled peptide (confocal) [4]: localized to PRs including the outer nuclear layer and inner/outer segments as well as RPE; timepoint of maximum level of labelled peptide in retina [4]: 6 h
